Values quoted from earlier work in PubChem BioAssay AID1259409 (Chemical Carcinogenesis Research Information System (CCRIS), 2018).

Tested on: rodent chemically induced tumor inhibition, incidence and multiplicity
Test: CCRIS tumor inhibitor studies
Settings: Route [Inhibitor]: ORAL, Species: RAT, Promoter: NONE USED

## CC1=C(/C=C/C(C)=C/C=C/C(C)=C/C=C2C(=O)CC(C)(C)CC2=O)C(C)(C)CCC1
Carcinogen: L-AZASERINE, 115-02-6, Dose [Inhibitor]: 1 MMOL/KG DIET DAILY FOR 365 D STARTING 1 WK AFTER COMPLETION OF CARCINOGEN TREATMENT (STUDY DURATION: 66 WK), Strain/Sex: WISTAR-LEWIS/FEMALE, Target Tissue: Type of Lesion: PANCREAS: ADENOMA, Dose [Carcinogen]: 10 MG/KG BW 1/WK FOR 15 WK
  tumour outcome (control, treated, inhibition, significance): 50%, 33%, 34%, not significant
Carcinogen: L-AZASERINE, 115-02-6, Dose [Inhibitor]: 1 MMOL/KG DIET DAILY FOR 365 D STARTING 1 WK AFTER COMPLETION OF CARCINOGEN TREATMENT (STUDY DURATION: 66 WK), Strain/Sex: WISTAR-LEWIS/FEMALE, Target Tissue: Type of Lesion: PANCREAS: CARCINOMA IN SITU, Dose [Carcinogen]: 10 MG/KG BW 1/WK FOR 15 WK
  tumour outcome (control, treated, inhibition, significance): 8%, 21%, -163%, not calculated
Carcinogen: L-AZASERINE, 115-02-6, Dose [Inhibitor]: 1 MMOL/KG DIET DAILY FOR 365 D STARTING 1 WK AFTER COMPLETION OF CARCINOGEN TREATMENT (STUDY DURATION: 66 WK), Strain/Sex: WISTAR-LEWIS/FEMALE, Target Tissue: Type of Lesion: PANCREAS: CARCINOMA, Dose [Carcinogen]: 10 MG/KG BW 1/WK FOR 15 WK
  tumour outcome (control, treated, inhibition, significance): 13%, 4%, 69%, not significant
Carcinogen: L-AZASERINE, 115-02-6, Dose [Inhibitor]: 1 MMOL/KG DIET DAILY FOR 365 D STARTING 1 WK AFTER COMPLETION OF CARCINOGEN TREATMENT (STUDY DURATION: 66 WK), Strain/Sex: WISTAR-LEWIS/FEMALE, Target Tissue: Type of Lesion: PANCREAS: NEOPLASM, Dose [Carcinogen]: 10 MG/KG BW 1/WK FOR 15 WK
  tumour outcome (control, treated, inhibition, significance): 71%, 58%, 18%, not significant
Carcinogen: L-AZASERINE, 115-02-6, Dose [Inhibitor]: 1 MMOL/KG DIET DAILY FOR 365 D STARTING 1 WK AFTER COMPLETION OF CARCINOGEN TREATMENT (STUDY DURATION: 66 WK), Strain/Sex: WISTAR-LEWIS/MALE, Target Tissue: Type of Lesion: PANCREAS: ADENOMA, Dose [Carcinogen]: 10 MG/KG BW 1/WK FOR 15 WK
  tumour outcome (control, treated, inhibition, significance): 25%, 12%, 52%, not significant
Carcinogen: L-AZASERINE, 115-02-6, Dose [Inhibitor]: 1 MMOL/KG DIET DAILY FOR 365 D STARTING 1 WK AFTER COMPLETION OF CARCINOGEN TREATMENT (STUDY DURATION: 66 WK), Strain/Sex: WISTAR-LEWIS/MALE, Target Tissue: Type of Lesion: PANCREAS: CARCINOMA IN SITU, Dose [Carcinogen]: 10 MG/KG BW 1/WK FOR 15 WK
  tumour outcome (control, treated, inhibition, significance): 29%, 56%, -93%, not significant
Carcinogen: L-AZASERINE, 115-02-6, Dose [Inhibitor]: 1 MMOL/KG DIET DAILY FOR 365 D STARTING 1 WK AFTER COMPLETION OF CARCINOGEN TREATMENT (STUDY DURATION: 66 WK), Strain/Sex: WISTAR-LEWIS/MALE, Target Tissue: Type of Lesion: PANCREAS: CARCINOMA, Dose [Carcinogen]: 10 MG/KG BW 1/WK FOR 15 WK
  tumour outcome (control, treated, inhibition, significance): 46%, 16%, 65%, p<0.05
Carcinogen: L-AZASERINE, 115-02-6, Dose [Inhibitor]: 1 MMOL/KG DIET DAILY FOR 365 D STARTING 1 WK AFTER COMPLETION OF CARCINOGEN TREATMENT (STUDY DURATION: 66 WK), Strain/Sex: WISTAR-LEWIS/MALE, Target Tissue: Type of Lesion: PANCREAS: NEOPLASM, Dose [Carcinogen]: 10 MG/KG BW 1/WK FOR 15 WK
  tumour outcome (control, treated, inhibition, significance): 100%, 84%, 16%, not significant
Carcinogen: L-AZASERINE, 115-02-6, Dose [Inhibitor]: 2 MMOL/KG DIET DAILY FOR 330 D STARTING 1 WK AFTER COMPLETION OF CARCINOGEN TREATMENT (STUDY DURATION: 66 WK), Strain/Sex: WISTAR-LEWIS/FEMALE, Target Tissue: Type of Lesion: PANCREAS: ADENOMA, Dose [Carcinogen]: 10 MG/KG BW 1/WK FOR 15 WK
  tumour outcome (control, treated, inhibition, significance): 50%, 33%, 34%, not significant
Carcinogen: L-AZASERINE, 115-02-6, Dose [Inhibitor]: 2 MMOL/KG DIET DAILY FOR 330 D STARTING 1 WK AFTER COMPLETION OF CARCINOGEN TREATMENT (STUDY DURATION: 66 WK), Strain/Sex: WISTAR-LEWIS/FEMALE, Target Tissue: Type of Lesion: PANCREAS: CARCINOMA IN SITU, Dose [Carcinogen]: 10 MG/KG BW 1/WK FOR 15 WK
  tumour outcome (control, treated, inhibition, significance): 8%, 17%, -113%, not calculated
Carcinogen: L-AZASERINE, 115-02-6, Dose [Inhibitor]: 2 MMOL/KG DIET DAILY FOR 330 D STARTING 1 WK AFTER COMPLETION OF CARCINOGEN TREATMENT (STUDY DURATION: 66 WK), Strain/Sex: WISTAR-LEWIS/FEMALE, Target Tissue: Type of Lesion: PANCREAS: CARCINOMA, Dose [Carcinogen]: 10 MG/KG BW 1/WK FOR 15 WK
  tumour outcome (control, treated, inhibition, significance): 13%, 0%, 100%, not significant
Carcinogen: L-AZASERINE, 115-02-6, Dose [Inhibitor]: 2 MMOL/KG DIET DAILY FOR 330 D STARTING 1 WK AFTER COMPLETION OF CARCINOGEN TREATMENT (STUDY DURATION: 66 WK), Strain/Sex: WISTAR-LEWIS/FEMALE, Target Tissue: Type of Lesion: PANCREAS: NEOPLASM, Dose [Carcinogen]: 10 MG/KG BW 1/WK FOR 15 WK
  tumour outcome (control, treated, inhibition, significance): 71%, 50%, 30%, p 0.14
Carcinogen: L-AZASERINE, 115-02-6, Dose [Inhibitor]: 2 MMOL/KG DIET DAILY FOR 330 D STARTING 1 WK AFTER COMPLETION OF CARCINOGEN TREATMENT (STUDY DURATION: 66 WK), Strain/Sex: WISTAR-LEWIS/MALE, Target Tissue: Type of Lesion: PANCREAS: ADENOMA, Dose [Carcinogen]: 10 MG/KG BW 1/WK FOR 15 WK
  tumour outcome (control, treated, inhibition, significance): 25%, 40%, -60%, not significant
Carcinogen: L-AZASERINE, 115-02-6, Dose [Inhibitor]: 2 MMOL/KG DIET DAILY FOR 330 D STARTING 1 WK AFTER COMPLETION OF CARCINOGEN TREATMENT (STUDY DURATION: 66 WK), Strain/Sex: WISTAR-LEWIS/MALE, Target Tissue: Type of Lesion: PANCREAS: CARCINOMA IN SITU, Dose [Carcinogen]: 10 MG/KG BW 1/WK FOR 15 WK
  tumour outcome (control, treated, inhibition, significance): 29%, 44%, -52%, not significant
Carcinogen: L-AZASERINE, 115-02-6, Dose [Inhibitor]: 2 MMOL/KG DIET DAILY FOR 330 D STARTING 1 WK AFTER COMPLETION OF CARCINOGEN TREATMENT (STUDY DURATION: 66 WK), Strain/Sex: WISTAR-LEWIS/MALE, Target Tissue: Type of Lesion: PANCREAS: CARCINOMA, Dose [Carcinogen]: 10 MG/KG BW 1/WK FOR 15 WK
  tumour outcome (control, treated, inhibition, significance): 46%, 0%, 100%, p<0.05
Carcinogen: L-AZASERINE, 115-02-6, Dose [Inhibitor]: 2 MMOL/KG DIET DAILY FOR 330 D STARTING 1 WK AFTER COMPLETION OF CARCINOGEN TREATMENT (STUDY DURATION: 66 WK), Strain/Sex: WISTAR-LEWIS/MALE, Target Tissue: Type of Lesion: PANCREAS: NEOPLASM, Dose [Carcinogen]: 10 MG/KG BW 1/WK FOR 15 WK
  tumour outcome (control, treated, inhibition, significance): 100%, 84%, 16%, not significant
Carcinogen: N-METHYL-N-NITROSOUREA, 684-93-5, Dose [Inhibitor]: 406 MG/KG DIET DAILY FOR 24 WK STARTING 5 D AFTER LAST CARCINOGEN DOSE (STUDY DURATION: 32 WK), Strain/Sex: F344/MALE, Target Tissue: Type of Lesion: COLON: SARCOMA, Dose [Carcinogen]: 0.5 MG 2/WK FOR 8 WK
  tumour outcome (control, treated, inhibition, significance): 5/40 (13%), 3/40 (8%), 38%, not calculated
Carcinogen: N-METHYL-N-NITROSOUREA, 684-93-5, Dose [Inhibitor]: 406 MG/KG DIET DAILY FOR 24 WK STARTING 5 D AFTER LAST CARCINOGEN DOSE (STUDY DURATION: 32 WK), Strain/Sex: F344/MALE, Target Tissue: Type of Lesion: COLON: TUMOR, Dose [Carcinogen]: 0.5 MG 2/WK FOR 8 WK
  tumour outcome (control, treated, inhibition, significance): 60%, 75%, -25%, not significant
Carcinogen: N-METHYL-N-NITROSOUREA, 684-93-5, Dose [Inhibitor]: 406 MG/KG DIET DAILY FOR 38 WK STARTING 5 D AFTER LAST CARCINOGEN DOSE (STUDY DURATION: 44 WK), Strain/Sex: F344/MALE, Target Tissue: Type of Lesion: COLON: TUMOR, Dose [Carcinogen]: 0.5 MG 2/WK FOR 6 WK
  tumour outcome (control, treated, inhibition, significance): 62%, 49%, 21%, not significant
Carcinogen: N-METHYL-N-NITROSOUREA, 684-93-5, Dose [Inhibitor]: 406 MG/KG DIET DAILY FOR 48 WK STARTING 5 D AFTER LAST CARCINOGEN DOSE (STUDY DURATION: 52 WK), Strain/Sex: F344/MALE, Target Tissue: Type of Lesion: COLON: TUMOR, Dose [Carcinogen]: 0.5 MG 2/WK FOR 4 WK
  tumour outcome (control, treated, inhibition, significance): 31%, 35%, -13%, not significant
